# Test results as given in PMC11864979, “First-in-class ultralong-target-residence-time p38α inhibitors as a mitosis-targeted therapy for colorectal cancer” (Nature Cancer, 2025).
# Like-named read-outs stand apart in the source and are kept apart here.
# Columns and labels:
# Experiment in all cases: selectivity profiling in a panel of 340 wild-type kinases (Reaction Biology Europe)
# Format in all cases: binding
# 340 wild-type kinases [1] = target: T1, 340 wild-type kinases (Homo sapiens, UniProt P34947)
# T1 construct: purchased Reaction Biology Europe
# 340 wild-type kinases [2] = target: T2, 340 wild-type kinases (Homo sapiens, UniProt Q13043)
# T2 construct: purchased Reaction Biology Europe
# T2 sequence (Q13043 1-487): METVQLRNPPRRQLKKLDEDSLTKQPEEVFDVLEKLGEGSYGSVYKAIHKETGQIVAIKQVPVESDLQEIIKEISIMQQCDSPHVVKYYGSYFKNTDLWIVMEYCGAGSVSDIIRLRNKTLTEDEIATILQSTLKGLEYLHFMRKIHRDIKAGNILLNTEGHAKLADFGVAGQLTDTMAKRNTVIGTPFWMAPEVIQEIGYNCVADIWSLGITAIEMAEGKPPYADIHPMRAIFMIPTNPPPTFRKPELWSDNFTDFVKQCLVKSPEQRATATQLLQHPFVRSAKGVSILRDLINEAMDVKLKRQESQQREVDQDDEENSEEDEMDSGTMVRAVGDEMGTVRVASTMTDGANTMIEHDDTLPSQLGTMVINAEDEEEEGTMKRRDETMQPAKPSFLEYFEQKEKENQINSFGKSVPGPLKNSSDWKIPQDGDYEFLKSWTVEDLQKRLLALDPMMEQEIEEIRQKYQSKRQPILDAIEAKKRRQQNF
# 340 wild-type kinases [3] = target: T3, 340 wild-type kinases (Homo sapiens, UniProt P27361)
# T3 construct: purchased Reaction Biology Europe
# 340 wild-type kinases [4] = target: T4, 340 wild-type kinases (Homo sapiens, UniProt P31751)
# T4 construct: purchased Reaction Biology Europe
# 340 wild-type kinases [5] = target: T5, 340 wild-type kinases (Homo sapiens, UniProt Q15375)
# T5 construct: purchased Reaction Biology Europe
# 340 wild-type kinases [6] = target: T6, 340 wild-type kinases (Homo sapiens, UniProt P16591)
# T6 construct: purchased Reaction Biology Europe
# 340 wild-type kinases [7] = target: T7, 340 wild-type kinases (Homo sapiens, UniProt P05129)
# T7 construct: purchased Reaction Biology Europe
# 340 wild-type kinases [8] = target: T8, 340 wild-type kinases (Homo sapiens, UniProt P16234)
# T8 construct: purchased Reaction Biology Europe
# 340 wild-type kinases [9] = target: T9, 340 wild-type kinases (Homo sapiens, UniProt Q99986)
# T9 construct: purchased Reaction Biology Europe
# T9 sequence (Q99986 1-396): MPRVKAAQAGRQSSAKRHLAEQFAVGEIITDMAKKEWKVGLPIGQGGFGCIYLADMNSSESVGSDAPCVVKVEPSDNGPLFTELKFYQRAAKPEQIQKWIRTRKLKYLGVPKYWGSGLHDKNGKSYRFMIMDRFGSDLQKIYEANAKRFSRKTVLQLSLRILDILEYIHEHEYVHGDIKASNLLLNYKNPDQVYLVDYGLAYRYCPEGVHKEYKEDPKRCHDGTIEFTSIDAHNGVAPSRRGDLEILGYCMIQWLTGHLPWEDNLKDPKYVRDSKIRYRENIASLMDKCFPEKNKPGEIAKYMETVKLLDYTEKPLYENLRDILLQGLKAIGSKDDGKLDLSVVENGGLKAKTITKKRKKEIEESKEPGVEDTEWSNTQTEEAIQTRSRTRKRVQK
# 340 wild-type kinases [10] = target: T10, 340 wild-type kinases (Homo sapiens, UniProt P49759)
# T10 construct: purchased Reaction Biology Europe
# T10 sequence (P49759 whole entry): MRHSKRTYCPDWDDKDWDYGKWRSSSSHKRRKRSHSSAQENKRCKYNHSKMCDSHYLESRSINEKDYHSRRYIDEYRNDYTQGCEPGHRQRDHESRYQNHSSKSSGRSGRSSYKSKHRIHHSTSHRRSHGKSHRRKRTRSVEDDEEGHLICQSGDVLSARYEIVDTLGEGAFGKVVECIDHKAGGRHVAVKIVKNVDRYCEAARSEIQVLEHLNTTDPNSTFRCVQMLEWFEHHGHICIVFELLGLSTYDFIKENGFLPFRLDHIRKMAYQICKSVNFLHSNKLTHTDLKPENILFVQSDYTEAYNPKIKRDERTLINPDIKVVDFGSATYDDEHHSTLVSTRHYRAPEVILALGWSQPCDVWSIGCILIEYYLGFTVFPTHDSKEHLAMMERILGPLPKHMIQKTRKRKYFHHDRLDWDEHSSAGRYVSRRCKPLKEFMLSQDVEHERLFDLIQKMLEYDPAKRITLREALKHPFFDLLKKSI
# T3 sequence (P27361 whole entry): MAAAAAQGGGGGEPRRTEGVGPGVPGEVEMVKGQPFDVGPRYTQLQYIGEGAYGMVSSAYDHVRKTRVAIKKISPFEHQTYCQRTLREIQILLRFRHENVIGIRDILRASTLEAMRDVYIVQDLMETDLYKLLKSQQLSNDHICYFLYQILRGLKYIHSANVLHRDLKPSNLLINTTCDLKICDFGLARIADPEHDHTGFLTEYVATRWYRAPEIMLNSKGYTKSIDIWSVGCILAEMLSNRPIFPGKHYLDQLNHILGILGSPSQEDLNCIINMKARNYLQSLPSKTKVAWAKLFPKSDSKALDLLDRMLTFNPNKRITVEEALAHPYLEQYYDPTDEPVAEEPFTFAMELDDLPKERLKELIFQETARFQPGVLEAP
# T6 sequence (P16591 whole entry): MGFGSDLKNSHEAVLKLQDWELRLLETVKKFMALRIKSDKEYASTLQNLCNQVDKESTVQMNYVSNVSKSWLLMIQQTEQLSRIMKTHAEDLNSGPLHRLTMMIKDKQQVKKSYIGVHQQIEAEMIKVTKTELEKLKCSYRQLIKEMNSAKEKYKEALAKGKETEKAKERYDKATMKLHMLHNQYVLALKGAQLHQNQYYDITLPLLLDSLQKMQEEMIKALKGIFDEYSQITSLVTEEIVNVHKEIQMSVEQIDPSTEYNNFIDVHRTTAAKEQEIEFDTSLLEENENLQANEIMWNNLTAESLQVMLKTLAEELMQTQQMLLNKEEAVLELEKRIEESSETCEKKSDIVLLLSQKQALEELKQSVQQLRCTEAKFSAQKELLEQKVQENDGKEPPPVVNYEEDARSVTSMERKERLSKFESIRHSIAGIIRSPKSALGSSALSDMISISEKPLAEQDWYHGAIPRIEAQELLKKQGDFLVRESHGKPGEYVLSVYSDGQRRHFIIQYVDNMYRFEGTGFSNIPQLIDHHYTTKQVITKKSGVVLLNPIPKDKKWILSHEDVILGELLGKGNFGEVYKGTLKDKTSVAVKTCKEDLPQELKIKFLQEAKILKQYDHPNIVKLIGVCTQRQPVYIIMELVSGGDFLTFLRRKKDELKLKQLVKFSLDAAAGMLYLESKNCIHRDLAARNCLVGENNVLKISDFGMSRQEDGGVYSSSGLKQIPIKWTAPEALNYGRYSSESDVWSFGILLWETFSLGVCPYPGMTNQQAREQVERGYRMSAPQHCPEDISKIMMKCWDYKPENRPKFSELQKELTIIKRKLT
# T5 sequence (Q15375 28-998): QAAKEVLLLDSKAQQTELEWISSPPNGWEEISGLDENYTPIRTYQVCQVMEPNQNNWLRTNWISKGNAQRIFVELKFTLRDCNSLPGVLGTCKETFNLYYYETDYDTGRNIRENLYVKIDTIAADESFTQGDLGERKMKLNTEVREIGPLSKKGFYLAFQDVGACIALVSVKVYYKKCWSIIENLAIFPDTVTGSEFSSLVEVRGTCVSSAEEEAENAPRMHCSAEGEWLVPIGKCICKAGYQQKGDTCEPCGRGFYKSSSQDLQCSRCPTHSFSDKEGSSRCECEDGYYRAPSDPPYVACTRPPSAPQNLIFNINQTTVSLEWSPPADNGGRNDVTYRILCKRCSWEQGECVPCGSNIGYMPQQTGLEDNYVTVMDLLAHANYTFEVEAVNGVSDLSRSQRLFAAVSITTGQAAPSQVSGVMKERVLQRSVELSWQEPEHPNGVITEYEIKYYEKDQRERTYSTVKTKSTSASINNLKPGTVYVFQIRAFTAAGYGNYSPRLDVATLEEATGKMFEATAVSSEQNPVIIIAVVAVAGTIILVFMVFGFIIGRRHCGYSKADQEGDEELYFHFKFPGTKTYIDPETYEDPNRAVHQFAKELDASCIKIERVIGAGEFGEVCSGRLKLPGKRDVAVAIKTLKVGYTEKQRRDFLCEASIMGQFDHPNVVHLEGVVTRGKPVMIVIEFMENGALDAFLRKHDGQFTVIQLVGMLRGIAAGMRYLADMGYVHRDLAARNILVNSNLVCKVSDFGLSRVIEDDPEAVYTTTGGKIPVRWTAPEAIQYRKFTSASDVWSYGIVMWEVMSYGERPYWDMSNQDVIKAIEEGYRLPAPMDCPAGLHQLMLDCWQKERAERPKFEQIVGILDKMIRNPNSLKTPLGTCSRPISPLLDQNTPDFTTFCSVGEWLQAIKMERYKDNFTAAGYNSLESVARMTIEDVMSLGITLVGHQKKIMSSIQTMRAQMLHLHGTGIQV
# T4 sequence (P31751 whole entry): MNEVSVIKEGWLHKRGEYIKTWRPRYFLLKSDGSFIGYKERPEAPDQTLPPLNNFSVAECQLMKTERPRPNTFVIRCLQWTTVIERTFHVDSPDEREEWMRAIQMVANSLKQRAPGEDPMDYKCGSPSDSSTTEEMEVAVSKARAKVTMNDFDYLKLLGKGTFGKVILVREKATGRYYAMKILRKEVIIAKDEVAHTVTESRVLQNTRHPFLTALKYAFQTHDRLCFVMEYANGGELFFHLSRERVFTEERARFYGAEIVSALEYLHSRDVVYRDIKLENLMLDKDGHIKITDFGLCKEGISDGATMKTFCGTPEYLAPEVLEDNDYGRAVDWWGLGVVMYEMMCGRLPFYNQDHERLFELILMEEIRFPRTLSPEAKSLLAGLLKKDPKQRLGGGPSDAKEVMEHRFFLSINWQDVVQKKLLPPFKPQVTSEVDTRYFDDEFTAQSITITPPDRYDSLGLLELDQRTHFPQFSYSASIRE
# T8 sequence (P16234 24-1089): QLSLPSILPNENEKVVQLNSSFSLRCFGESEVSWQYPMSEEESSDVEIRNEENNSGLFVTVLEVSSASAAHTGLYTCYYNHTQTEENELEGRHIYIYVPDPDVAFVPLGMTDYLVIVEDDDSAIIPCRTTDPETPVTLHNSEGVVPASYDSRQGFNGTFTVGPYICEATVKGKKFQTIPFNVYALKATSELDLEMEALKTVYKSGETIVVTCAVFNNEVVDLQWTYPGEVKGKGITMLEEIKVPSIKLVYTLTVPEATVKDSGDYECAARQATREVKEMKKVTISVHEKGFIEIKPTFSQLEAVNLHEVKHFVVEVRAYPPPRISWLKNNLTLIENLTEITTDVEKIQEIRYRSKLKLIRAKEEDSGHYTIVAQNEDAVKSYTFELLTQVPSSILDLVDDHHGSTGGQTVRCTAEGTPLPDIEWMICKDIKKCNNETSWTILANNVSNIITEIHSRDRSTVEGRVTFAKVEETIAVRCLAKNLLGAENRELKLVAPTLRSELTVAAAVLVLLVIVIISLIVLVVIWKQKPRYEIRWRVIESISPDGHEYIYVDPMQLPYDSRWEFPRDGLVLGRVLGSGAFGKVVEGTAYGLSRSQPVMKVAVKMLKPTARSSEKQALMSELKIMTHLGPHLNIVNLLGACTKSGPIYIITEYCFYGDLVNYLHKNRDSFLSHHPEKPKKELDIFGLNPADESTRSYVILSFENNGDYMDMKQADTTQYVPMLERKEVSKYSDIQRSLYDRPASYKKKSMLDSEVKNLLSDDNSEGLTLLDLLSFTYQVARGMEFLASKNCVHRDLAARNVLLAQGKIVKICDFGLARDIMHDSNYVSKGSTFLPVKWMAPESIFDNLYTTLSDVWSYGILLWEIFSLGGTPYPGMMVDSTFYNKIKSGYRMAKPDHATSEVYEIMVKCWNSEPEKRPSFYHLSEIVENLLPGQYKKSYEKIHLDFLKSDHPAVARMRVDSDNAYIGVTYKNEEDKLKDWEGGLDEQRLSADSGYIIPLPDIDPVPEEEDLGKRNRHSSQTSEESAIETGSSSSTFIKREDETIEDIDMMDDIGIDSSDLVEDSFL
smiles,measurement,setting,value
CNC(=O)c1ccc2c(c1)C(=O)c1ccc(Nc3ccc(F)c(NC(=O)C4CC4)c3)cc1CC2 [Compound 2015],remaining activity at 0.2 µM,"340 wild-type kinases [1]; 0.2 µM 2015, read-out: GRK5 residual activity",106%
same,remaining activity at 1 µM,"340 wild-type kinases [1]; 1 µM 2015, read-out: GRK5 residual activity",114%
same,remaining activity at 0.2 µM,"340 wild-type kinases [1]; GRK5, 0.2 µM, read-out: residual activity",106%
same,remaining activity at 1 µM,"340 wild-type kinases [1]; GRK5, 1 µM, read-out: residual activity",114%
same,remaining activity at 0.2 µM,"340 wild-type kinases [2]; 0.2 µM 2015, read-out: MST1 residual activity",98.1%
same,remaining activity at 1 µM,"340 wild-type kinases [2]; 1 µM 2015, read-out: MST1 residual activity",100%
same,remaining activity at 0.2 µM,"340 wild-type kinases [2]; MST1, 0.2 µM, read-out: residual activity",98.1%
same,remaining activity at 1 µM,"340 wild-type kinases [2]; MST1, 1 µM, read-out: residual activity",100%
same,remaining activity at 1 µM,"340 wild-type kinases [3]; 1 µM 2015, read-out: ERK1 residual activity",104%
same,remaining activity at 0.2 µM,"340 wild-type kinases [3]; ERK1, 0.2 µM, read-out: residual activity",108%
same,remaining activity at 1 µM,"340 wild-type kinases [3]; ERK1, 1 µM, read-out: residual activity",104%
same,remaining activity at 0.2 µM,"340 wild-type kinases [4]; 0.2 µM 2015, read-out: AKT2 residual activity",64.5%
same,remaining activity at 1 µM,"340 wild-type kinases [4]; 1 µM 2015, read-out: AKT2 residual activity",93%
same,remaining activity at 0.2 µM,"340 wild-type kinases [4]; AKT2, 0.2 µM, read-out: residual activity",64.5%
same,remaining activity at 1 µM,"340 wild-type kinases [4]; AKT2, 1 µM, read-out: residual activity",93%
same,remaining activity at 0.2 µM,"340 wild-type kinases [5]; 0.2 µM 2015, read-out: EPHA7 residual activity",126%
same,remaining activity at 1 µM,"340 wild-type kinases [5]; 1 µM 2015, read-out: EPHA7 residual activity",106%
same,remaining activity at 0.2 µM,"340 wild-type kinases [5]; EPHA7, 0.2 µM, read-out: residual activity",126%
same,remaining activity at 1 µM,"340 wild-type kinases [5]; EPHA7, 1 µM, read-out: residual activity",106%
same,remaining activity at 0.2 µM,"340 wild-type kinases [6]; 0.2 µM 2015, read-out: FER residual activity",125%
same,remaining activity at 1 µM,"340 wild-type kinases [6]; 1 µM 2015, read-out: FER residual activity",102%
same,remaining activity at 0.2 µM,"340 wild-type kinases [6]; FER, 0.2 µM, read-out: residual activity",125%
same,remaining activity at 1 µM,"340 wild-type kinases [6]; FER, 1 µM, read-out: residual activity",102%
same,remaining activity at 0.2 µM,"340 wild-type kinases [7]; 0.2 µM 2015, read-out: PKCgamma residual activity",109%
same,remaining activity at 1 µM,"340 wild-type kinases [7]; 1 µM 2015, read-out: PKCgamma residual activity",86.6%
same,remaining activity at 0.2 µM,"340 wild-type kinases [7]; PKCgamma, 0.2 µM, read-out: residual activity",109%
same,remaining activity at 1 µM,"340 wild-type kinases [7]; PKCgamma, 1 µM, read-out: residual activity",86.6%
same,remaining activity at 0.2 µM,"340 wild-type kinases [8]; 0.2 µM 2015, read-out: PDGFRalpha residual activity",102%
same,remaining activity at 1 µM,"340 wild-type kinases [8]; 1 µM 2015, read-out: PDGFRalpha residual activity",95.4%
same,remaining activity at 0.2 µM,"340 wild-type kinases [8]; PDGFRalpha, 0.2 µM, read-out: residual activity",102%
same,remaining activity at 1 µM,"340 wild-type kinases [8]; PDGFRalpha, 1 µM, read-out: residual activity",95.4%
same,remaining activity at 0.2 µM,"340 wild-type kinases [9]; 0.2 µM 2015, read-out: VRK1 residual activity",96.8%
same,remaining activity at 1 µM,"340 wild-type kinases [9]; 1 µM 2015, read-out: VRK1 residual activity",87.2%
same,remaining activity at 0.2 µM,"340 wild-type kinases [9]; VRK1, 0.2 µM, read-out: residual activity",96.8%
same,remaining activity at 1 µM,"340 wild-type kinases [9]; VRK1, 1 µM, read-out: residual activity",87.2%
same,remaining activity at 0.2 µM,"340 wild-type kinases [10]; 0.2 µM 2015, read-out: CLK1 residual activity",98.6%
same,remaining activity at 1 µM,"340 wild-type kinases [10]; 1 µM 2015, read-out: CLK1 residual activity",93%
same,remaining activity at 0.2 µM,"340 wild-type kinases [10]; CLK1, 0.2 µM, read-out: residual activity",98.6%
same,remaining activity at 1 µM,"340 wild-type kinases [10]; CLK1, 1 µM, read-out: residual activity",93%
